Experiments:
Caov-3 cells = experiment: Caov3 CTG proliferation assay (CellTiter-Glo); format: cell-based; conditions: Homo sapiens, 120 hours treatment, 30 μM top concentration
Procedure: (§1) Cell treatment and cell growth assessment: 18 hours post-seeding in white 384-Viewplate (6007480, PerkinElmer) at 1500 cells/well, Caov3 cells were treated for 120 hours with compounds inhibiting the METTL3/14 activity (10 serial semi-log dilutions, 30 μM as top concentration). Upon treatment, Coav-3 cells were incubated for 10 min at RT with the CellTiter-Glo reagent (G7571, Promega). Measurement of the luminescence signal was performed on a microplate reader (Ensight, PerkinElmer).

KASUMI-1 cells = experiment: Kasumi cell assay (CellTiter-Glo cell growth); format: cell-based; conditions: Homo sapiens, 120 hours treatment, 30 μM top concentration
Procedure: Cell culture: KASUMI-1 cells (ACC20, Leibniz-Institut DSMZ Deutsche Sammlung von Mikroorganismen und Zellkulturen GmbH) were grown in RPMI 1640 (31870-025, Gibco) supplemented with 20% fetal bovine serum (F1524, Gibco), 1 mM sodium pyruvate (11360-039, Gibco) and 2 mM Glutamax (35050-038, Gibco) in a 5% CO2 humidified incubator at 37° C.
as §1, with “KASUMI-1” for “18”, “were seeded” for “post-seeding”, “ultra-low attachment 384-well culture plate (MS-9384WZ, SBio)” for “white 384-Viewplate (6007480, PerkinElmer)”, “a final concentration of 250,000 cells/ml (35 μL/well) and” for “1500 cells/well, Caov3 cells were”, “Kasumi1” for “Coav-3”

METTL3/14 = METTL3/14 (Homo sapiens (Human), UniProt Q86U44); experiment: METTL3/14 methyltransferase biochemical assay (RapidFire mass spectrometry, METTL3_14 RFMS)
Procedure: The enzymatic assay was established to determine IC50 values for inhibition of RNA methyltransferase activity. The enzyme used was full-length his-tagged METTL3 co-expressed with full length FLAG-tagged METTL14 in a baculovirus expression system. […] The reaction was incubated for further 60 minutes at room temperature, and then quenched by the addition of 40 μL 7.5% TCA with two internal product standards (D4-SAH and ^13C10-SAH). After termination, plates were sealed, centrifuged and stored at 4° C. until analysis. […] RNA methyltransferase activity was measured label free using the RapidFireTM mass spectrometry (RF/MS) platform. Stopped and stable assay plates were analyzed on the Agilent RF300 integrated autosampler/solid-phase extraction (SPE) system coupled to an ABSciex 4000 mass spectrometer for the generation of the product S-adenosyl homocysteine (SAH) and normalized to the ratio of signal of the two internal product standards, respectively. Solvent A was water containing 0.1% (v/v) TCA. Solvent B was acetonitrile/0.1% ammonium acetate (8:2, v/v).

Chain of METTL3/14 (Q86U44 whole entry): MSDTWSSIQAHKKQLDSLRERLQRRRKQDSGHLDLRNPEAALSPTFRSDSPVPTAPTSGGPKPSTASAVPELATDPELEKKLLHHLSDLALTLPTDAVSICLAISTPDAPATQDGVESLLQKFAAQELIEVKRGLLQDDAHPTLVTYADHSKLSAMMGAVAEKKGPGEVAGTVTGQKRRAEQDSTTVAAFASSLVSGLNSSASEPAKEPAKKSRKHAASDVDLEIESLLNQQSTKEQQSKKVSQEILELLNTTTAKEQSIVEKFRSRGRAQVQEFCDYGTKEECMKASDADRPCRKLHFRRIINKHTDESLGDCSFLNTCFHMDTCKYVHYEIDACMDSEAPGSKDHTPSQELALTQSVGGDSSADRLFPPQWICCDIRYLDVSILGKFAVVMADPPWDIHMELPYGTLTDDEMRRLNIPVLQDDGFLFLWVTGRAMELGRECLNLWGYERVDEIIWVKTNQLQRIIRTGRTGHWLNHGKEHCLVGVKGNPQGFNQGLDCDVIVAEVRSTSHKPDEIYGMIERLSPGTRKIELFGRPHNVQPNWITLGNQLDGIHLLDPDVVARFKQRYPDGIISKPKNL
Chain of METTL3/14 (Q9HCE5 whole entry partner): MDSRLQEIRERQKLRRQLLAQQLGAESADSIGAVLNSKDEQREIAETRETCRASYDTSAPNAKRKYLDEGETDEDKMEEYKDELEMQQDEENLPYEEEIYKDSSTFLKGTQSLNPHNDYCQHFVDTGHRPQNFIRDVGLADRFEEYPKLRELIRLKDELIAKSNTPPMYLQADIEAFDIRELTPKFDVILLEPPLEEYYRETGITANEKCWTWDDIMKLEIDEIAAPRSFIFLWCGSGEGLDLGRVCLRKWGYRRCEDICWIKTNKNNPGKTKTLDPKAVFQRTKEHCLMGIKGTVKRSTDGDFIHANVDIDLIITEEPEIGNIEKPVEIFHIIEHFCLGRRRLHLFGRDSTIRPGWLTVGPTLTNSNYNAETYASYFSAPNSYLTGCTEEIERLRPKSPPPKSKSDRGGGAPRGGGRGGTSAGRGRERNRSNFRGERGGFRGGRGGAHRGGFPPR

Row | IC50 (METTL3/14) | Compound | IC50 (Caov-3 cells) | IC50 (KASUMI-1 cells)
1 | 0.016 µM | COc1cnc(C#N)c(-c2cn(Cc3cn4cc(CNCC56CC(F)(C5)C6)ccc4n3)nn2)c1 [Example 41, 3-{1-[(6-{[({3-fluorobicyclo[1.1.1]pentan-1-yl}methyl)amino]methyl}imidazo[1,2-a]pyridin-2-yl)methyl]-1H-1,2,3-triazol-4-yl}-5-methoxypyridine-2-carbonitrile] | 4.07 µM | 2.66 µM
2 | 0.013 µM | COc1ccncc1-c1cn(Cc2cn3cc(CNCC45CC(F)(C4)C5)ccc3n2)nn1 [Example 47, ({3-fluorobicyclo[1.1.1]pentan-1-yl}methyl)[(2-{[4-(4-methoxypyridin-3-yl)-1H-1,2,3-triazol-1-yl]methyl}imidazo[1,2-a]pyridin-6-yl)methyl]amine] | 1.38 µM | 4.45 µM
3 | 0.006 µM | N#Cc1ncc(N2CCOCC2)cc1-c1cn(Cc2cn3cc(CNCC45CC(F)(C4)C5)ccc3n2)nn1 [Example 51, 3-{1-[(6-{[({3-fluorobicyclo[1.1.1]pentan-1-yl}methyl)amino]methyl}imidazo[1,2-a]pyridin-2-yl)methyl]-1H-1,2,3-triazol-4-yl}-5-(morpholin-4-yl)pyridine-2-carbonitrile] | 1.33 µM | 1.86 µM
4 | 0.006 µM | FC12CC(CNCc3ccc4nc(Cn5cc(-c6cncc(N7CCOCC7)c6)nn5)cn4c3)(C1)C2 [Example 52, ({3-fluorobicyclo[1.1.1]pentan-1-yl}methyl)({[2-({4-[5-(morpholin-4-yl)pyridin-3-yl]-1H-1,2,3-triazol-1-yl}methyl)imidazo[1,2-a]pyridin-6-yl]methyl})amine] | 0.54 µM | 1.61 µM
